Laboratory results taken from PMC8518382, “Identification of a Bromodomain‐like Region in 15‐Lipoxygenase‐1 Explains Its Nuclear Localization” (Angewandte Chemie (International Ed. in English), 2021).

Legend:
15-LOX-1 [1] = target: T1, 15-LOX-1 (Homo sapiens, UniProt P16050); assay: 15-LOX-1 activity assay, UV-absorbance change for linoleic acid conversion; type: biochemical; design: His-tag (N); made in house; host or cells: E. coli BL21(DE3); conditions: for IC50: 10 min pre-incubation at RT, 25 µM linoleic acid, absorbance 234 nm; for Mode of inhibition (Lineweaver–Burk plots): Km constant, Vmax decreases with inhibitor concentration
T1 sequence (P16050 1-662): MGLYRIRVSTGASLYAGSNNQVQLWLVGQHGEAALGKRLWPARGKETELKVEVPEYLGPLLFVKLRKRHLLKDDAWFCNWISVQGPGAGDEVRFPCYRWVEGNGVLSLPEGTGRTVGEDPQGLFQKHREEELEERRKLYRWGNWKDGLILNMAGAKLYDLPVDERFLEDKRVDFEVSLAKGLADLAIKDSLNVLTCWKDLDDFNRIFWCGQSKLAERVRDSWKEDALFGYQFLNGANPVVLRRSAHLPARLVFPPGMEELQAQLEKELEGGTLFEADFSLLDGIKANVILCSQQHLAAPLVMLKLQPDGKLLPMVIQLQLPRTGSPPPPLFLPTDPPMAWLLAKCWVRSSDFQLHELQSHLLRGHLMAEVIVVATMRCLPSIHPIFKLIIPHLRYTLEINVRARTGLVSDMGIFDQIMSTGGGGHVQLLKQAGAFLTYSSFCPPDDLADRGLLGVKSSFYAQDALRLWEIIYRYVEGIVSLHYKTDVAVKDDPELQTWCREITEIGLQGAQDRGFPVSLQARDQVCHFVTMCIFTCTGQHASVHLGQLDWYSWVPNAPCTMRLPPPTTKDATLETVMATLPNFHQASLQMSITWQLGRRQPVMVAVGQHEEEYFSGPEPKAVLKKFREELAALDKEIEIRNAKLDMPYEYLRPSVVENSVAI
Excerpt: In brief, an alkyne‐alcohol was linked to propargyl halide (Cl or Br) using a CuI‐catalyzed Sonogashira cross‐coupling reaction followed by biotinylation of the alcohol using EDCI and HOBt as reagents to provide the desired biotinylated bis‐alkyne probes. The biotinylated bis‐alkynes were subjected to 15‐LOX‐1 binding studies using a 15‐LOX‐1 activity assay based on the UV‐absorbance change for linoleic acid conversion (Figure 1 a). […] Next, we evaluated the effect of the extension of the terminal ethyl substitution of inhibitor 1. […]
empty plasmid was proceed with the same procedure, which lysate was used as the negative control (referred as BL21 control later) in 15-LOX-1 recombinant enzyme inhibition studies.
1.3. Purification of recombinant human 15-LOX-1
The 15-LOX-1 with N-terminal his-tag was produced as described above. After removing the cell debris, the supernatant containing 15-LOX-1 was loaded on a Ni-NTA column (Qiagen, Hilden, Germany) pre-equilibrated with LOX lysis buffer. The column was washed twice with 30 column volume of LOX lysis buffer, and once with 30 column volume of wash buffer (25 mM HEPES, 300 mM NaCl, 25 mM Imidazole, pH 8.0). Later, the 15-LOX-1 was eluted twice with 2 column volume of elution buffer (25 mM HEPES, 300 mM NaCl, 250 mM Imidazole, pH 8.0), followed by desalting with a PD-10 column (Sigma-Aldrich) with LOX storage buffer (25 mM HEPES, 20% Glycerol, pH 7.5). The desalted 15-LOX-1 was further purified and concentrated with Vivaspin Turbo 15 (30.000 MWCO). The protein concentration was determined by Nanodrop spectrophotometry. The 100 μl aliquots of 15-LOX-1 were stored at -20 for further experiments.
15-LOX-1 recombinant enzyme inhibition assay
The 15-LOX-1 inhibition assay has been detailed previously. Briefly, the conversion of linoleic acid to hydroperoxy-(9Z,11E)-octadecadienoic acid (λmax of 234 nm) was used to determine the activity of the 15-LOX-1 enzyme. The conversion rate was the slope of UV-absorbance at 234 nm overtime at the […]
To determine the IC50 of probes, the cell lysate was pre-diluted in LOX assay buffer at a ratio of 1:160. The inhibition assay was done in an F-bottom UV-STAR 96-well plate, in which 50 µl of the diluted enzyme was incubated with 140 µl of a probe diluted in LOX assay buffer for 10 min at room temperature (RT). Later 10 µl of 500 µM linoleic acid dissolved in ethanol was added to the plate to reach a final concentration of 25 µM. The UV-absorbance at 234 nm was determined by a BioTek Synergy H1 plate reader (BioTek, Winooski, VT, USA) . The slope of the 15-LOX-1 sample untreated with the probe was set as 100%, while the slope of the BL21 control sample was set as 0%.
For the determination of enzyme kinetics, a series concentration of linoleic acid was used. Fifty µl of pre-diluted 15-LOX-1 enzyme was incubated with 140 µl of probe solution at a fixed concentration for 10 min at RT. Subsequently, 10 µl of a series concentration of linoleic acid was added to a final concentration ranging from 10 µM to 100 µM. The conversion rate was calculated as the same as […]
described in the IC50 determination assay. Michaelis-Menten plots, Lineweaver-Burk plots, Km, and Vmax, are generated using GraphPad Prism 8.3.0. […]

15-LOX-1 [2] = target: T1, 15-LOX-1; assay: Kitz-Wilson kinetic analysis of 15-LOX-1 inactivation; type: biochemical; design: His-tag (N); made in house; host or cells: E. coli BL21(DE3); conditions: for Ki: read-out: K i (equilibrium binding constant)
Method: Subsequently, Kitz‐Wilson analysis was performed to distinguish the equilibrium binding constant (K i) from the rate of covalent inactivation (k i). The different bis‐alkynes provided remarkably constant k i’s that varied by a factor 3 or less, whereas the K i’s varied by a factor 200 (Table 1). […] Improved non‐covalent binding is an important characteristic for activity‐based labeling because it implies improved specific recognition properties to the target of interest. Therefore, inhibitor 3 has been used for further development of a probe for activity‐based labeling of lipoxygenase activity with 15‐LOX‐1 as a reference enzyme. For convenient discussion, we named inhibitor 3, “Labelox B”. […]
described in the IC50 determination assay. Michaelis-Menten plots, Lineweaver-Burk plots, Km, and Vmax, are generated using GraphPad Prism 8.3.0.
1.5. Kits-Wilson kinetic analysis
The probes inhibit the 15-LOX-1 enzyme with a two-step reaction. First, a probe binds to an enzyme to get a reversible complex, E*I. The dissociation constant of inhibitor (Ki) is from the formation of E*I. Then, the probe forms a covalent bond with the enzyme, which generates an irreversible complex, E-I. The inactivation rate constant (ki) is to describe the rate of E-I generation. To determine these inactivation parameters, Kitz-Wilson analysis was employed. The procedure has been detailed previously

Structure (SMILES) | IC50 (15-LOX-1 [1]) | Mode of inhibition (Lineweaver–Burk plots) (15-LOX-1 [1]) | k i (rate of covalent inactivation) (15-LOX-1 [2]) | Ki (15-LOX-1 [2]) | other results
CCC#CCC#CCOC(=O)CCCC[C@@H]1SCC2NC(=O)NC21 (some centres unmarked) [Probe 1] | 38.2 µM | non‐competitive LOX inhibition | 0.0136 ± 0.0061 min⁻¹ | 116 ± 19.5 µM | 
CCC#CCC#CC(C)OC(=O)CCCC[C@@H]1SCC2NC(=O)NC21 (some centres unmarked) [Probe 2] | > 100 µM |  |  |  | LOX inhibitory potency (words) (15-LOX-1 [1]; structure-activity discussion): potency was lost
CCC#CCC#CCCOC(=O)CCCC[C@@H]1SC[C@@H]2NC(=O)N[C@@H]21 [Probe 4] | 11.1 µM |  | 0.0093 ± 0.0031 min⁻¹ | 16.6 ± 3.29 µM | LOX inhibitory potency (words) (15-LOX-1 [1]; structure-activity discussion in text, listed as 4): loss of LOX inhibitory potency
CCC#CCC#CCCCOC(=O)CCCC[C@@H]1SC[C@@H]2NC(=O)N[C@@H]21 [Probe 5] | 19.8 µM |  | 0.0066 ± 0.0047 min⁻¹ | 38.7 ± 6.33 µM | LOX inhibitory potency (words) (15-LOX-1 [1]; structure-activity discussion): loss of LOX inhibitory potency
CCCCCC#CCC#CCCCOC(=O)CCCC[C@@H]1SC[C@@H]2NC(=O)N[C@@H]21 [Probe 6] |  |  |  |  | LOX inhibitory potency (words) (15-LOX-1 [1]; structure-activity discussion in text, listed as 6): did not improve the potency

More lines, main results first:

IC50 (15-LOX-1 [1]) | Mode of inhibition (Lineweaver–Burk plots) (15-LOX-1 [1]) | k i (rate of covalent inactivation) (15-LOX-1 [2]) | Ki (15-LOX-1 [2]) | Structure (SMILES) | other results
> 100 µM | non‐competitive LOX inhibition |  |  | CCCCCC#CCC#CCCCOC(=O)CCCC[C@@H]1SC[C@@H]2NC(=O)N[C@@H]21 [Probe 7] | LOX inhibitory potency (words) (15-LOX-1 [1]; structure-activity discussion in text, listed as 7): regain in potency
> 100 µM | non‐competitive LOX inhibition |  |  | CCC#CCC#CCCOC(=O)CCCC[C@@H]1SC[C@@H]2NC(=O)N[C@@H]21 [Probe 8] | LOX inhibitory potency (words) (15-LOX-1 [1]; structure-activity discussion in text, listed as 8): did not improve the potency
> 100 µM |  |  |  | C#CCOC(=O)CCCC[C@@H]1SCC2NC(=O)NC21 (some centres unmarked) [Probe 9] | 
> 100 µM |  |  |  | CCCC#CCOC(=O)CCCC[C@@H]1SCC2NC(=O)NC21 (some centres unmarked) [Probe 10] | 
